In PMC11240139, “Exploring the antitumor potential of novel quinoline derivatives via tubulin polymerization inhibition in breast cancer; design, synthesis and molecular docking” (RSC Advances, 2024):

Experiments:
HL-60(TB) (leukemia) = assay: NCI-60 SRB cytotoxicity screen; assay type: cell-based; details: Homo sapiens, single dose 10 μM, read-out: growth inhibition (GI%)
RPMI-8226 (leukemia) = assay: NCI-60 SRB cytotoxicity screen; assay type: cell-based; details: Homo sapiens; RPMI-8226, single dose 10 μM; read-out: growth inhibition (GI%)
[1] = tested on: A549/ATCC (non-small cell lung cancer); assay: NCI-60 SRB cytotoxicity screen; assay type: cell-based; details: Homo sapiens, single dose 10 μM, read-out: growth inhibition (GI%)
[2] = tested on: EKVX (non-small cell lung cancer); assay: NCI-60 SRB cytotoxicity screen; assay type: cell-based; details: Homo sapiens, single dose 10 μM, read-out: growth inhibition (GI%)
[3] = tested on: HOP-62 (non-small cell lung cancer); assay: NCI-60 SRB cytotoxicity screen; assay type: cell-based; details: Homo sapiens; HOP-62, single dose 10 μM; read-out: growth inhibition (GI%)
[4] = tested on: HOP-92 (non-small cell lung cancer); assay: NCI-60 SRB cytotoxicity screen; assay type: cell-based; details: Homo sapiens; HOP-92, single dose 10 μM; read-out: growth inhibition (GI%)
[5] = tested on: NCI-H460 (non-small cell lung cancer); assay: NCI-60 SRB cytotoxicity screen; assay type: cell-based; details: Homo sapiens; NCI-H460, single dose 10 μM; read-out: growth inhibition (GI%)
[6] = tested on: NCI-H522 (non-small cell lung cancer); assay: NCI-60 SRB cytotoxicity screen; assay type: cell-based; details: Homo sapiens; NCI-H522, single dose 10 μM; read-out: growth inhibition (GI%)
HCC-2998 (colon cancer) = assay: NCI-60 SRB cytotoxicity screen; assay type: cell-based; details: Homo sapiens; HCC-2998, single dose 10 μM; read-out: growth inhibition (GI%)
HCT-15 (colon cancer) = assay: NCI-60 SRB cytotoxicity screen; assay type: cell-based; details: Homo sapiens; HCT-15, single dose 10 μM; read-out: growth inhibition (GI%)
KM12 (colon cancer) = assay: NCI-60 SRB cytotoxicity screen; assay type: cell-based; details: Homo sapiens; KM12, single dose 10 μM; read-out: growth inhibition (GI%)
SW-620 (colon cancer) = assay: NCI-60 SRB cytotoxicity screen; assay type: cell-based; details: Homo sapiens; SW-620, single dose 10 μM; read-out: growth inhibition (GI%)
SF-295 (CNS cancer) = assay: NCI-60 SRB cytotoxicity screen; assay type: cell-based; details: Homo sapiens; SF-295, single dose 10 μM; read-out: growth inhibition (GI%)
MALME-3M (melanoma) = assay: NCI-60 SRB cytotoxicity screen; assay type: cell-based; details: Homo sapiens, single dose 10 μM, read-out: growth inhibition (GI%)
MDA-MB-435 (melanoma) = assay: NCI-60 SRB cytotoxicity screen; assay type: cell-based; details: Homo sapiens, MDA-MB-435, read-out: growth inhibition (GI%);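 further: growth inhibition in percent at a single 10 µM dose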
SK-MEL-2 (melanoma) = assay: NCI-60 SRB cytotoxicity screen; assay type: cell-based; details: Homo sapiens; SK-MEL-2, single dose 10 μM; read-out: growth inhibition (GI%)
SK-MEL-5 (melanoma) = assay: NCI-60 SRB cytotoxicity screen; assay type: cell-based; details: Homo sapiens; SK-MEL-5, single dose 10 μM; read-out: growth inhibition (GI%)
UACC-257 (melanoma) = assay: NCI-60 SRB cytotoxicity screen; assay type: cell-based; details: Homo sapiens; UACC-257, single dose 10 μM; read-out: growth inhibition (GI%)
UACC-62 (melanoma) = assay: NCI-60 SRB cytotoxicity screen; assay type: cell-based; details: Homo sapiens; UACC-62, single dose 10 μM; read-out: growth inhibition (GI%)
OVCAR-4 (ovarian cancer) = assay: NCI-60 SRB cytotoxicity screen; assay type: cell-based; details: Homo sapiens; OVCAR-4, single dose 10 μM; read-out: growth inhibition (GI%)
SK-OV-3 (ovarian cancer) = assay: NCI-60 SRB cytotoxicity screen; assay type: cell-based; details: Homo sapiens; SK-OV-3, single dose 10 μM; read-out: growth inhibition (GI%)
786-0 (renal cancer) = assay: NCI-60 SRB cytotoxicity screen; assay type: cell-based; details: Homo sapiens; 786-0, single dose 10 μM; read-out: growth inhibition (GI%)
ACHN (renal cancer) = assay: NCI-60 SRB cytotoxicity screen; assay type: cell-based; details: Homo sapiens, single dose 10 μM, read-out: growth inhibition (GI%)
CAKI-1 (renal cancer) = assay: NCI-60 SRB cytotoxicity screen; assay type: cell-based; details: Homo sapiens; CAKI-1, single dose 10 μM; read-out: growth inhibition (GI%)
RXF 393 (renal cancer) = assay: NCI-60 SRB cytotoxicity screen; assay type: cell-based; details: Homo sapiens; RXF 393, single dose 10 μM; read-out: growth inhibition (GI%)
TK-10 (renal cancer) = assay: NCI-60 SRB cytotoxicity screen; assay type: cell-based; details: Homo sapiens; TK-10, single dose 10 μM; read-out: growth inhibition (GI%)
PC-3 (prostate cancer) = assay: NCI-60 SRB cytotoxicity screen; assay type: cell-based; details: PC-3, single dose 10 μM; read-out: growth inhibition (GI%)
MCF7 (breast cancer) = assay: NCI-60 SRB cytotoxicity screen; assay type: cell-based; details: Homo sapiens; MCF7, single dose 10 μM; read-out: growth inhibition (GI%)
BT-549 (breast cancer) = assay: NCI-60 SRB cytotoxicity screen; assay type: cell-based; details: Homo sapiens; BT-549, single dose 10 μM; read-out: growth inhibition (GI%)

| Compound | inhibition at 10 µM (HL-60(TB) (leukemia)) | inhibition at 10 µM (RPMI-8226 (leukemia)) | inhibition at 10 µM [1] | inhibition at 10 µM [2] | inhibition at 10 µM [3] | inhibition at 10 µM [4] | inhibition at 10 µM [5] | inhibition at 10 µM [6] | inhibition at 10 µM (HCC-2998 (colon cancer)) | inhibition at 10 µM (HCT-15 (colon cancer)) | inhibition at 10 µM (KM12 (colon cancer)) | inhibition at 10 µM (SW-620 (colon cancer)) | inhibition at 10 µM (SF-295 (CNS cancer)) | inhibition at 10 µM (MALME-3M (melanoma)) | inhibition at 10 µM (MDA-MB-435 (melanoma)) | inhibition at 10 µM (SK-MEL-2 (melanoma)) | inhibition at 10 µM (SK-MEL-5 (melanoma)) | inhibition at 10 µM (UACC-257 (melanoma)) | inhibition at 10 µM (UACC-62 (melanoma)) | inhibition at 10 µM (OVCAR-4 (ovarian cancer)) | also measured |
| --- | --- | --- | --- | --- | --- | --- | --- | --- | --- | --- | --- | --- | --- | --- | --- | --- | --- | --- | --- | --- | --- |
| CCc1cccc2cc(C=CC(=O)c3ccc(Br)cc3)c(Cl)nc12 [Compound 3e, 1-(4-Bromophenyl)-3-(2-chloro-8-ethylquinolin-3-yl)prop-2-en-1-one] | < 10% | < 10% | < 10% | < 10% | < 10% | < 10% | < 10% | < 10% | < 10% | < 10% | < 10% | < 10% | < 10% | < 10% | < 10% | < 10% | < 10% | < 10% | < 10% | < 10% | inhibition at 10 µM (SK-OV-3 (ovarian cancer)): < 10%; inhibition at 10 µM (786-0 (renal cancer)): < 10%; inhibition at 10 µM (ACHN (renal cancer)): < 10%; inhibition at 10 µM (CAKI-1 (renal cancer)): 12.8%; inhibition at 10 µM (RXF 393 (renal cancer)): < 10%; inhibition at 10 µM (TK-10 (renal cancer)): < 10%; inhibition at 10 µM (PC-3 (prostate cancer)): < 10%; inhibition at 10 µM (MCF7 (breast cancer)): < 10%; inhibition at 10 µM (BT-549 (breast cancer)): < 10%; melting point: 210 to 212 °C |
| CCc1cccc2cc(C3C=C(c4ccc(F)cc4)NC(=S)N3)c(Cl)nc12 (stereo not drawn) [Compound 6d, 4-(2-Chloro-8-ethylquinolin-3-yl)-6-(4-fluorophenyl)-3,4-dihydropyrimidine-2(1H)-thione] | < 10% | 19.3% | < 10% | < 10% | 15.2% | < 10% | < 10% | 25% | < 10% | 26.2% | 13.2% | < 10% | < 10% | < 10% | < 10% | < 10% | < 10% | < 10% | 14.2% | 21% | inhibition at 10 µM (SK-OV-3 (ovarian cancer)): < 10%; inhibition at 10 µM (786-0 (renal cancer)): < 10%; inhibition at 10 µM (ACHN (renal cancer)): < 10%; inhibition at 10 µM (CAKI-1 (renal cancer)): 26.1%; inhibition at 10 µM (RXF 393 (renal cancer)): < 10%; inhibition at 10 µM (TK-10 (renal cancer)): < 10%; inhibition at 10 µM (PC-3 (prostate cancer)): 22%; inhibition at 10 µM (MCF7 (breast cancer)): 24.6%; inhibition at 10 µM (BT-549 (breast cancer)): < 10%; melting point: 220 to 222 °C |
| CCc1cccc2cc(-c3cc(-c4ccc(F)cc4)[nH]c(=S)c3C#N)c(Cl)nc12 [Compound 5d, 4-(2-Chloro-8-ethylquinolin-3-yl)-6-(4-fluorophenyl)-2-thioxo-1,2-dihydropyridine-3-carbonitrile] | < 10% | 23% | < 10% | 19.6% | < 10% | 11.4% | < 10% | 11.8% | < 10% | 14.8% | < 10% | < 10% | 12.3% | < 10% | < 10% | < 10% | 15.3% | < 10% | 25.7% | 13.3% | inhibition at 10 µM (SK-OV-3 (ovarian cancer)): 20.9%; inhibition at 10 µM (786-0 (renal cancer)): < 10%; inhibition at 10 µM (ACHN (renal cancer)): < 10%; inhibition at 10 µM (CAKI-1 (renal cancer)): 31.1%; inhibition at 10 µM (RXF 393 (renal cancer)): < 10%; inhibition at 10 µM (TK-10 (renal cancer)): < 10%; inhibition at 10 µM (PC-3 (prostate cancer)): 4.57%; inhibition at 10 µM (MCF7 (breast cancer)): 40.4%; inhibition at 10 µM (BT-549 (breast cancer)): 12.2%; melting point: 235 to 237 °C |
| CCc1cccc2cc(C3C=C(c4cc(OC)c(OC)c(OC)c4)NC(=S)N3)c(Cl)nc12 (stereo not drawn) [Compound 6c, 4-(2-Chloro-8-ethylquinolin-3-yl)-6-(3,4,5-trimethoxyphenyl)-3,4-dihydropyrimidine-2(1H)-thione] | 41.5% | 57.6% | 26.3% | 37.9% | 10.5% | 28.3% | 30% | 50.3% | 26.1% | 30.9% | 28.1% | 13.4% | 30% | < 10% | 43.5% | 10.2% | 38.2% | 13.1% | 35.5% | 48.9% | inhibition at 10 µM (SK-OV-3 (ovarian cancer)): < 10%; inhibition at 10 µM (786-0 (renal cancer)): 18.2%; inhibition at 10 µM (ACHN (renal cancer)): 24.4%; inhibition at 10 µM (CAKI-1 (renal cancer)): 64.1%; inhibition at 10 µM (RXF 393 (renal cancer)): 40.6%; inhibition at 10 µM (TK-10 (renal cancer)): 12.6%; inhibition at 10 µM (PC-3 (prostate cancer)): 46.2%; inhibition at 10 µM (MCF7 (breast cancer)): 44.3%; inhibition at 10 µM (BT-549 (breast cancer)): 10.5%; melting point: 235 to 237 °C |
